Laboratory results published in publication PMC9867837 (Cancer letters, 2022).
pIC50: −log10 of the molar value.

What was measured:
[1] = target: T1, Stat1:Stat3 DNA-binding activity (Mus musculus, UniProt P42227); assay: EMSA of Stat1:Stat3 DNA-binding activity in nuclear extracts of EGF-stimulated NIH3T3/hEGFR; assay type: biochemical; conditions: Fig. 1C, hSIE probe, 30 min
T1 construct: endogenous in cells; host or cells: EGF-stimulated NIH3T3/hEGFR fibroblasts (nuclear extract)
Experimental: Details are presented in Supplementary Information, “Methods”. […]
min, prior to incubation with the radiolabeled probe for 30 min at 30 °C and subjecting to EMSA analysis.
(§1) In another case, the nuclear extract was pre-incubated with the radiolabeled probe for 30 min at 30 °C prior to incubation with increasing concentration of H182 at room temperature for 30 min and subjecting to EMSA analysis. Bands corresponding to Stats DNA- binding activities were scanned and quantified using ImageJ and plotted as a percentage of control (vehicle) against the concentration of the inhibitor, from which the IC50 values were derived .

[2] = tested on: Stat3-dependent luciferase reporter, pLucTKS3; assay: Stat3-dependent luciferase reporter pLucTKS3 in NIH3T3/v-Src; assay type: cell-based, mouse; conditions: 1–3 μM H182 for 1 h
Experimental: These studies were performed as previously reported using the v-Src-transformed NIH3T3/v-Src fibroblasts. Details are presented in Supplementary Information, “Methods”.
We next evaluated the effects of the azetidine compound, H182 on Stat3 transcriptional activity. We used mouse fibroblasts transformed by the viral Src oncoprotein (NIH3T3/vSrc) that harbor constitutive Stat3 activation, which were transiently transfected with the Stat3-dependent luciferase reporter, pLucTKS3 [25, 30]. Transfected cells were treated with H182 and the luciferase activity was assayed in the cytosolic extract preparations of equal total protein [12, 13, 30]. […]
as §1, with “derived . […]” for “derived .”
These studies were performed as previously reported using the v-Src -transformed NIH3T3/v-Src fibroblasts [1 -5] . […] Luciferase activity was normalized to total protein concentration of cell lysate, which was determined by Bradford assay (Bio-Rad, Hercules, CA) . […]

MDA-MB-231 cells = assay: Soft-agar colony formation; assay type: cell-based, human; conditions: 0.3–2 μM H182
Experimental: These studies were performed as previously reported. Details are presented in Supplementary Information, “Methods”.
These studies were performed as previously reported . For the clonogenic survival assay, briefly, cells were seeded as single-cell (500 cells per well) in 6 -well plates, then untreated (DMSO control) or treated once the following day with H182 and allowed to grow until large colonies were visible, which were stained with crystal violet for 4 h and imaged with a FluorChem imaging system (Protein Simple, Santa Clara, CA).
For the soft-agar assay, briefly, each well contained a bottom layer of 1 ml of 1% agarose in complete DMEM and a top layer of 1 ml of 0.5% agarose in complete DMEM containing 500 cells. After the upper agar layer containing cells solidified, 1 ml culture medium containing H182 (0-2 µM) or DMSO (control) was overlaid, and the cultures were maintained at 37 °C in the incubator, with the medium replacement every 3-4 days with fresh medium that contains the inhibitor or not. Cells were allowed to culture for 3-4 weeks until large colonies were visible under microscope. The colonies were stained with crystal violet and […]
1.2.8. Confocal microscopy studies
4 cells in 1 ml) in logarithmic
These studies were performed as previously reported. […]

[3] = tested on: MDA-MB-231 tumor xenografts; assay: Subcutaneous MDA-MB-231 xenografts in athymic nude mice; assay type: in vivo
Experimental: Mice were housed in specific pathogen-free conditions in the animal facility. All animal experiments were conducted in accordance with the recommendations in the Guide for the Care and Use of Laboratory Animals on a protocol approved by the Institutional Animal Care and Use Committee (IACUC). Subcutaneous xenograft studies were performed as previously reported. Five-week-old female athymic nude mice were purchased from Envigo (Indianapolis, IN) or Charles River (Wilmington, MA) and maintained in the institutional animal facilities approved by the American Association for Accreditation of Laboratory Animal Care. […] Tumor sizes were monitored every 3–4 days, measured with calipers, and converted to tumor volume, V, according to the formula V = 0.52 × a^2 × b, where a, smallest superficial diameter, and b, largest superficial diameter. For each treatment group, the tumor volumes for each set of measurements were statistically analyzed relative to the control (DMSO-treated; 70% DMSO with sterile PBS) group.
Constitutively-active Stat3 promotes primary tumor development and the progression to therapy resistance. We proceeded to evaluate the in vivo antitumor efficacy against tumor growth in both human xenograft and mouse syngeneic models of TNBC. In four separate studies, we tested the efficacy of H182, H278 (HCl salt of H182), and H120. For these xenografts, the human breast cancer, MDA-MB-231 cells were injected subcutaneously into athymic nude mice. When tumors were palpable (80–120 mm^3), mice were grouped so that the mean tumor sizes were identical between groups and treated as follows: A) intraperitoneal (IP) injections of H182 at 10 mg/kg every other day for 33 days; B) oral gavage of H182 every day at 5 mg/kg for 20 days, and then increased to 20 mg/kg for additional 12 days; and C) oral gavage of H120 at 20 mg/kg, daily for 14 days, and then increased to 30 mg/kg, daily for additional 14 days.

T1 sequence (P42227 2-770 limits assumed): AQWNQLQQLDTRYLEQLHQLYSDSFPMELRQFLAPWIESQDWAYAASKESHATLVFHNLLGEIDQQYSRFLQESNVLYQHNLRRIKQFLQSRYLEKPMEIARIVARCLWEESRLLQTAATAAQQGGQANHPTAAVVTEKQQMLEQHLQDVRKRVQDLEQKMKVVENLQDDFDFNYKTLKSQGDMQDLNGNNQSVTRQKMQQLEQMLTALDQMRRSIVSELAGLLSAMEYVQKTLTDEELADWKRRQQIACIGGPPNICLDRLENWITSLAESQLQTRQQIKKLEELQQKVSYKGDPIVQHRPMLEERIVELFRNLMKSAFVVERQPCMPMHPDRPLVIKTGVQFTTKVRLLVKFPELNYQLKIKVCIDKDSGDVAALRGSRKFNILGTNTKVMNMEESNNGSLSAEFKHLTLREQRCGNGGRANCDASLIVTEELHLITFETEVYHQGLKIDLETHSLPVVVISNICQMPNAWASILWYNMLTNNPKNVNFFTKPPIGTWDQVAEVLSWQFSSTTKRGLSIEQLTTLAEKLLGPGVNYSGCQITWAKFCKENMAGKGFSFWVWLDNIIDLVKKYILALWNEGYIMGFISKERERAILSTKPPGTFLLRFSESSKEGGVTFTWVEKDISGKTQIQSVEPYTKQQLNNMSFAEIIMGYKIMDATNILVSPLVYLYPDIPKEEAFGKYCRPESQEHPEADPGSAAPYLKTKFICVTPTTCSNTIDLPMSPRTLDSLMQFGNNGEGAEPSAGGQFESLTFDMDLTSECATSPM
T1 sequence (P42225 2-749 partner limits assumed): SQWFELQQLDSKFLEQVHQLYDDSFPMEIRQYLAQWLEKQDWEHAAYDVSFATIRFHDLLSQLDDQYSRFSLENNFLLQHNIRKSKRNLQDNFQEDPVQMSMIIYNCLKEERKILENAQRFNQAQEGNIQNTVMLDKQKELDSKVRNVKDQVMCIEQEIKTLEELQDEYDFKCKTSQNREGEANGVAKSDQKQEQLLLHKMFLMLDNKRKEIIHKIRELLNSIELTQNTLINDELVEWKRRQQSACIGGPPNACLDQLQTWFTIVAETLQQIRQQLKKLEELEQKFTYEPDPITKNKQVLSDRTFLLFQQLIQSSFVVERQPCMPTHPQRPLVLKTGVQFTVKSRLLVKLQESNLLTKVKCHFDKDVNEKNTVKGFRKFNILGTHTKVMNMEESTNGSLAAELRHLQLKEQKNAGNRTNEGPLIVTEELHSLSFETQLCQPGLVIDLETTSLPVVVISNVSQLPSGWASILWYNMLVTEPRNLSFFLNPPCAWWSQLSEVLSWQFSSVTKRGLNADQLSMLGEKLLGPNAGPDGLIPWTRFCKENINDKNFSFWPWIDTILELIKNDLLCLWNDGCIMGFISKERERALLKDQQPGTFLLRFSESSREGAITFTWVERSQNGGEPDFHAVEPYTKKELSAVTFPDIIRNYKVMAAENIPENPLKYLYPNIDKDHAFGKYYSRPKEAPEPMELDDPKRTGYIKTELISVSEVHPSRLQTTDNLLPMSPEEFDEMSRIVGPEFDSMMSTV

SMILES: O=C([C@H]1CCN1S(=O)(=O)c1c(F)c(F)c(F)c(F)c1F)N(Cc1ccc(C2CCCCC2)cn1)c1ccc2c(=O)[nH]ncc2c1 [Compound H182]
- pIC50 [1]: 5.47
- Effect on Stat3-driven luciferase reporter expression (pLucTKS3) [2]: dose-dependent inhibition
- Effect on anchorage-independent growth in soft-agar (MDA-MB-231 cells): potently and dose-dependently inhibited
- Tumor growth, MDA-MB-231 xenografts ([3]; H182 IP 10 mg/kg every other day for 33 days): significant tumor growth inhibition
- Tumor growth, MDA-MB-231 xenografts ([3]; H182 oral gavage daily 5 mg/kg for 20 days, then 20 mg/kg for 12 days): significant tumor growth inhibition
- Body weights and obvious signs of toxicity ([3]; the three xenograft studies): No notable changes
